Laboratory results reported in US7223759B2, “Antibacterial 3,5-diaminopiperidine-substituted aromatic and heteroaromatic compounds” (Anadys Pharmaceuticals, Inc., priority 2003, dated 2007).
Read-outs that look alike come from different tables or passages of the source.

System: Escherichia coli (ATCC25922) or Staphylococcus aureus (ATCC25923)
Experiment: Antibacterial MIC, microdilution method in Mueller-Hinton medium
Format: cell-based
Details: Escherichia coli, 18 h, read-out: Potency (MIC)
In short: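 Two-fold serial dilutions from 64 to 0.5 μg/ml, in duplicate, by broth microdilution in Mueller-Hinton medium (NCCLS M7-A5). MIC taken as the lowest concentration preventing visible growth after 18 h at 35° C.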

[1] = MIC in E. coli or S. aureus, two-fold serial dilutions 64 to 0.5 μg/ml in duplicate, 18 hours of incubation at 35° C.

MIC [1]	Compound	MIC
	N[C@@H]1C[C@H](N)CN(c2nc(Nc3ccc(C(=O)CC(=O)Nc4cccc(Cl)c4)cc3)nc(N3C[C@H](N)C[C@H](N)C3)n2)C1 [N-{4-[2-(3-chloro-phenylcarbamoyl)-acetyl]-phenyl}-4,6-Bis-((3R,5S)-3,5-diamino-piperidin-1-yl)-[1,3,5]triazine-2-amine]	< 16 µg/mL
	N[C@@H]1C[C@H](N)CN(c2nc(Nc3ccc(C(=O)CC(=O)Nc4cccc(CO)c4)cc3)nc(N3C[C@H](N)C[C@H](N)C3)n2)C1 [N-{4-[2-(3-hydroxymethyl-phenylcarbamoyl)-acetyl]-phenyl}-4,6-Bis-((3R,5S)-3,5-diamino-piperidin-1-yl)-[1,3,5]triazine-2-amine]	> 64 µg/mL
	N[C@@H]1C[C@H](N)CN(c2nc(Nc3ccc(C(=O)CC(=O)Nc4cccc(OC(F)(F)F)c4)cc3)nc(N3C[C@H](N)C[C@H](N)C3)n2)C1 [N-{4-[2-(3-trifluoromethoxy-phenylcarbamoyl)-acetyl]-phenyl}-4,6-Bis-((3R,5S)-3,5-diamino-piperidin-1-yl)-[1,3,5]triazine-2-amine]	< 16 µg/mL
	N[C@@H]1C[C@H](N)CN(c2nc(Nc3ccc(C(=O)CC(=O)Nc4cccc(C(F)(F)F)c4)cc3)nc(N3C[C@H](N)C[C@H](N)C3)n2)C1 [N-{4-[2-(3-trifluoromethyl-phenylcarbamoyl)-acetyl]-phenyl}-4,6-Bis-((3R,5S)-3,5-diamino-piperidin-1-yl)-[1,3,5]triazine-2-amine]	< 16 µg/mL
	N[C@@H]1C[C@H](N)CN(c2nc(Nc3ccc(C(=O)CC(=O)Nc4cccc(SC(F)(F)F)c4)cc3)nc(N3C[C@H](N)C[C@H](N)C3)n2)C1 [N-{4-[2-(3-trifluoromethylsulfanyl-phenylcarbamoyl)-acetyl]-phenyl}-4,6-Bis-((3R,5S)-3,5-diamino-piperidin-1-yl)-[1,3,5]triazine-2-amine]	< 16 µg/mL
	NCc1ccc(NC(=O)CC(=O)c2ccc(Nc3nc(N4C[C@H](N)C[C@H](N)C4)nc(N4C[C@H](N)C[C@H](N)C4)n3)cc2)cc1 [N-{4-[2-(4-aminomethyl-phenylcarbamoyl)-acetyl]-phenyl}-4,6-Bis-((3R,5S)-3,5-diamino-piperidin-1-yl)-[1,3,5]triazine-2-amine]	> 64 µg/mL
	COc1cc(NC(=O)CC(=O)c2ccc(Nc3nc(N4C[C@H](N)C[C@H](N)C4)nc(N4C[C@H](N)C[C@H](N)C4)n3)cc2)c(OC)cc1Cl [N-{4-[2-(4-chloro-2,5-dimethoxy-phenylcarbamoyl)-acetyl]-phenyl}-4,6-Bis-((3R,5S)-3,5-diamino-piperidin-1-yl)-[1,3,5]triazine-2-amine]	< 16 µg/mL
	N[C@@H]1C[C@H](N)CN(c2nc(Nc3ccc(C(=O)CC(=O)Nc4ccc(Cl)cc4F)cc3)nc(N3C[C@H](N)C[C@H](N)C3)n2)C1 [N-{4-[2-(4-chloro-2-fluoro-phenylcarbamoyl)-acetyl]-phenyl}-4,6-Bis-((3R,5S)-3,5-diamino-piperidin-1-yl)-[1,3,5]triazine-2-amine]	< 16 µg/mL
	N[C@@H]1C[C@H](N)CN(c2nc(Nc3ccc(C(=O)CC(=O)Nc4ccc(Cl)cc4)cc3)nc(N3C[C@H](N)C[C@H](N)C3)n2)C1 [N-{4-[2-(4-chloro-phenylcarbamoyl)-acetyl]-phenyl}-4,6-Bis-((3R,5S)-3,5-diamino-piperidin-1-yl)-[1,3,5]triazine-2-amine]	< 16 µg/mL
	N[C@@H]1C[C@H](N)CN(c2nc(Nc3ccc(C(=O)CC(=O)Nc4ccc(F)cc4)cc3)nc(N3C[C@H](N)C[C@H](N)C3)n2)C1 [N-{4-[2-(4-fluoro-phenylcarbamoyl)-acetyl]-phenyl}-4,6-Bis-((3R,5S)-3,5-diamino-piperidin-1-yl)-[1,3,5]triazine-2-amine]	< 16 µg/mL
< 16 µg/mL	COc1ccc(Nc2ccc(NC(=O)CC(=O)c3ccc(Nc4nc(N5CCCCC5)nc(N5CCCCC5)n4)cc3)cc2)cc1 [N-{4-[2-(4-methoxy-phenylcarbamoyl)-acetyl]-phenyl}-44,6-Bis-((3R,5S)-3,5-diamino-piperidin-1-yl)-[1,3,5]triazine-2-amine]	
< 64 µg/mL	Cl.NS(=O)(=O)c1ccc(NC(=O)CC(=O)c2ccc(Nc3nc(N4CCCCC4)nc(N4CCCCC4)n3)cc2)cc1 [N-{4-[2-(4-sulfamoyl-phenylcarbamoyl)-acetyl]-phenyl}-44,6-Bis-((3R,5S)-3,5-diamino-piperidin-1-yl)-[1,3,5]triazine-2-amine]	
	N[C@@H]1C[C@H](N)CN(c2nc(Nc3ccc(C(=O)CC(=O)Nc4ccc(SC(F)(F)F)cc4)cc3)nc(N3C[C@H](N)C[C@H](N)C3)n2)C1 [N-{4-[2-(4-trifluoromethylsulfanyl-phenylcarbamoyl)-acetyl]-phenyl}-4,6-Bis-((3R,5S)-3,5-diamino-piperidin-1-yl)-[1,3,5]triazine-2-amine]	< 16 µg/mL
< 16 µg/mL	Cl.O=C(CC(=O)c1ccc(Nc2nc(N3CCCCC3)nc(N3CCCCC3)n2)cc1)Nc1ccc(-c2ccccc2)cc1 [N-{4-[2-(biphenyl-44-ylcarbamoyl)-acetyl]-phenyl}-44,6-Bis-((3R,5S)-3,5-diamino-piperidin-1-yl)-[1,3,5]triazine-2-amine]	
> 64 µg/mL	COC(=O)CC(=O)Nc1ccc(Nc2nc(N3C[C@H](N)C[C@H](N)C3)nc(N3C[C@H](N)C[C@H](N)C3)n2)cc1O [N-{4-[4,6-Bis-((3R,5S)-3,5-diamino-piperidin-1-yl)-[1,3,5]triazin-2-ylamino]-2-hydroxy-phenyl}-malonamic acid methylester]	
	N[C@@H]1C[C@H](N)CN(c2nc(Nc3ccc(NC(=O)c4ccc(N5Cc6ccccc6C5)cc4O)c(O)c3)nc(N3C[C@H](N)C[C@H](N)C3)n2)C1 [N-{4-[4-(1,3-dihydro-isoindol-2-yl)-2-hydroxy-benzoylamino]-3-hydroxy-phenyl}-4,6-Bis-((3R,5S)-3,5-diamino-piperidin-1-yl)-[1,3,5]triazine-2-amine]	< 64 µg/mL
< 16 µg/mL	N[C@@H]1C[C@H](N)CN(c2nc(Nc3ccc(NC(=O)c4ccc(N5Cc6ccccc6C5)cc4O)cc3)nc(N3C[C@H](N)C[C@H](N)C3)n2)C1 [N-{4-[4-(1,3-dihydro-isoindol-2-yl)-2-hydroxy-benzoylamino]-phenyl}-4,6-Bis-((3R,5S)-3,5-diamino-piperidin-1-yl)-[1,3,5]triazine-2-amine]	
> 64 µg/mL	CC(C)(C)C(=O)Nc1ccc(S(=O)(=O)Nc2ccc(Nc3nc(N4C[C@H](N)C[C@H](N)C4)nc(N4C[C@H](N)C[C@H](N)C4)n3)cc2O)cc1.Cl [N-{4-[4-(2,2-dimethyl-propionylamino)-benzenesulfonylamino]-3-hydroxy-phenyl}-4,6-Bis-((3R,5S)-3,5-diamino-piperidin-1-yl)-[1,3,5]triazine-2-amine]	
	CCCCCC(CC)C(=O)Nc1ccc(S(=O)(=O)Nc2ccc(Nc3nc(N4C[C@H](N)C[C@H](N)C4)nc(N4C[C@H](N)C[C@H](N)C4)n3)cc2O)cc1 (stereo partly drawn) [N-{4-[4-(2-ethyl-heptanoylamino)-benzenesulfonylamino]-3-hydroxy-phenyl}-4,6-Bis-((3R,5S)-3,5-diamino-piperidin-1-yl)-[1,3,5]triazine-2-amine]	< 16 µg/mL
> 64 µg/mL	CC1=NN(c2ccc(Nc3nc(N4C[C@H](N)C[C@H](N)C4)nc(N4C[C@H](N)C[C@H](N)C4)n3)cc2)C(=O)C1CCO (stereo partly drawn) [N-{4-[4-(2-hydroxy-ethyl)-3-methyl-5-oxo-4,5-dihydro-pyrazol-1-yl]-phenyl}-4,6-Bis-((3R,5S)-3,5-diamino-piperidin-1-yl)-[1,3,5]triazine-2-amine]	
	NC1CN(c2nc(Nc3ccc(NC(=O)c4ccc(Cl)cc4)c(O)c3)nc(N3C[C@H](N)C[C@H](N)C3)n2)C1 [N-{4-[4-(3-Amino-azetidin-1-yl)-6-((3R,5S)-3,5-diamino-piperidin-1-yl)-[1,3,5]triazin-2-ylamino]-2-hydroxy-phenyl}-4-chloro-benzamide]	< 16 µg/mL
< 64 µg/mL	Cc1ccc(C(=O)Nc2ccc(Nc3nc(N4CC(N)C4)nc(N4C[C@H](N)C[C@H](N)C4)n3)cc2O)cc1.Cl [N-{4-[4-(3-Amino-azetidin-1-yl)-6-((3R,5S)-3,5-diamino-piperidin-1-yl)-[1,3,5]triazin-2-ylamino]-2-hydroxy-phenyl}-4-methyl-benzamide]	
	NC[C@H]1[C@@H](O)CCN1c1nc(Nc2ccc(NC(=O)c3ccc(Cl)cc3)c(O)c2)nc(N2C[C@H](N)C[C@H](N)C2)n1 [N-{4-[4-((2S,3S)-2-Aminomethyl-3-hydroxy-pyrrolidin-1-yl)-6-((3R,5S)-3,5-diamino-piperidin-1-yl)-[1,3,5]triazin-2-ylamino]-2-hydroxy-phenyl}-4-chloro-benzamide]	< 64 µg/mL
	Cc1ccc(C(=O)Nc2ccc(Nc3nc(N4C[C@H](N)C[C@H](N)C4)nc(N4CC[C@H](O)[C@@H]4CN)n3)cc2O)cc1 [N-{4-[4-((2S,3S)-2-Aminomethyl-3-hydroxy-pyrrolidin-1-yl)-6-((3R,5S)-3,5-diamino-piperidin-1-yl)-[1,3,5]triazin-2-ylamino]-2-hydroxy-phenyl}-4-methyl-benzamide]	< 16 µg/mL
	Cc1ccc(S(=O)(=O)N(Cc2ccccc2)c2ccc(Nc3nc(N4C[C@H](N)C[C@H](N)C4)nc(N4C[C@H](O)C[C@H]4CN)n3)cc2O)cc1 [N-{4-[4-((2S,4R)-2-Aminomethyl-4-hydroxy-pyrrolidin-1-yl)-6-((3R,5S)-3,5-diamino-piperidin-1-yl)-[1,3,5]triazin-2-ylamino]-2-hydroxy-phenyl}-N-benzyl-4-methyl-benzenesulfonamide]	< 64 µg/mL
	NC[C@@H]1C[C@H](N)CN1c1nc(Nc2ccc(NC(=O)c3ccc(O)cc3O)c(O)c2)nc(N2C[C@H](N)C[C@H](N)C2)n1 [N-{4-[4-((2S,4S)-4-Amino-2-aminomethyl-pyrrolidin-1-yl)-6-((3R,5S)-3,5-diamino-piperidin-1-yl)-[1,3,5]triazin-2-ylamino]-2-hydroxy-phenyl}-2,4-dihydroxy-benzamide]	< 16 µg/mL
